The values that follow come from patent US12037322B2, “AHR agonists” (Eli Lilly and Company, priority 2021, dated 2024).

The target in this test is T1, hAHR (Homo sapiens, UniProt P35869).
T1 construct: expressed in transfected cells
T1 sequence (P35869 11-848): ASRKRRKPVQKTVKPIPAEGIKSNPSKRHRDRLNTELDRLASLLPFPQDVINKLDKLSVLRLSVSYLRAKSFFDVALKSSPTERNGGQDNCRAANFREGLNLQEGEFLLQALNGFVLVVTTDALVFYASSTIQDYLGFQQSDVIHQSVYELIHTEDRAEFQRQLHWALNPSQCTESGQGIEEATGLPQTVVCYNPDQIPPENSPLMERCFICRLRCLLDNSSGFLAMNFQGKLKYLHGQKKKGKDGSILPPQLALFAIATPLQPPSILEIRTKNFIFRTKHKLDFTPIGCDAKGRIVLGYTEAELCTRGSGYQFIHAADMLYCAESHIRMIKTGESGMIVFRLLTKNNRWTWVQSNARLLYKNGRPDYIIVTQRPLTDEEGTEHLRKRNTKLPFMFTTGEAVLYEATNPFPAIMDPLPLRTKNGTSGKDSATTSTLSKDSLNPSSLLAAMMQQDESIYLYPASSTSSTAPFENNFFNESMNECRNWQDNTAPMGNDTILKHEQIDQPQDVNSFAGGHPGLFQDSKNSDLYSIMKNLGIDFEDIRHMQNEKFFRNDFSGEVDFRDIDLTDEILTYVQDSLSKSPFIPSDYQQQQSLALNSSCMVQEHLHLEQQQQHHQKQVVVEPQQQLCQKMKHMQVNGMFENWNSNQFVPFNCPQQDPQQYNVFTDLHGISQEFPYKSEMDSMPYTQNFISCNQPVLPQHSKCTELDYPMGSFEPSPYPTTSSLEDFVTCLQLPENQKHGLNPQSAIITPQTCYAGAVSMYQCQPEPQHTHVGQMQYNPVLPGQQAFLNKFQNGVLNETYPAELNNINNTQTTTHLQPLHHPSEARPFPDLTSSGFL
Briefly: hAHR nuclear translocation assay. It is filed as cell-based. The conditions noted are these: Jump-In T-REx HEK293 cells expressing AhR-EGFP; 45 min incubation; ratio of EGFP intensity in nuclear over cytosol; 20-point curve. On the procedure:
Stable cell lines were established using Jump-In™ T-REx™ HEK293 Retargeting Kit (Life Technologies). hAhR cDNA was cloned into the pJTI R4 CMV-TO EGFP vector. The EGFP was cloned to the C-terminal of AHR to form AhR-EGFP chimera. The pJTI R4 CMV-TO AhR-EGFP vector was transfected using FuGENE® HD into Jump-In™ T-REx™ HEK293 cells. Transfected cells were selected using 2.5 mg/ml G418 for 10 to 14 days, then expanded, harvested, and suspended in freeze media (FBS with 8% DMSO) at 2×10^7 cells/mL, and aliquots were stored in liquid nitrogen. One day before the assay date, cells were thawed and resuspended in DMEM with 5% FBS in the presence of 1 μg/mL Doxycycline and plated into ploy-L-Lysine coated […]-384 ULTRA Microplates (Perkin Elmer) at 12,000 to 15,000 cells per well and incubated at 37° C. and 5% CO2 overnight. On the assay date, compound was serially diluted (1:2) into 384-well nunc plates with DMSO using acoustic dispensing (ECHO). The dose response was a 20-point curve. Compound was resuspended in 40 μL of DMEM plus 0.1% BSA. The culture media was damped and 25 μL of DMEM plus 0.1% BSA was added, then 25 μL of compound in DMEM plus 0.1% BSA was added into cell plates. Cells were incubated with compounds at 37° C. and 5% CO2 for 45 min.
The final DMSO concentration was 0.2%. The media was damped after 45 minutes incubation. The cells were fixed with 40 μL of cold MeOH (−20° C.) for 20 min. The MeOH was damped and 50 μL of DPBS containing 1 μg/mL Hochst was added into the cell plates. The intensity of EGFP was quantitated by using OPERA PHENIX® or Operetta™ high content image system (Perkin Elmer) with 20× Water Objective and five field per well. The ratio of EGFP fluorescent intensity in nuclear over cytosol was analyzed using a 4-parameter nonlinear logistic equation to determine the potency of AhR agonists.

Consider `CC1CCc2c1cc(C(=O)Nc1nccc(C(F)(F)F)n1)c(=O)n2C` (stereo not drawn) [Example 7, 1,5-Dimethyl-2-oxo-N-[4-(trifluoromethyl)pyrimidin-2-yl]-6,7-dihydro-5H-cyclopenta[b]pyridine-3-carboxamide], for which the concentration giving a half-maximal response (EC50) was 8.26 nM.

As to `CC1CCc2c1cc(C(=O)Nc1ncc(C(F)(F)F)cn1)c(=O)n2C` (stereo not drawn) [Example 8, 1,5-Dimethyl-2-oxo-N-[5-(trifluoromethyl)pyrimidin-2-yl]-6,7-dihydro-5H-cyclopenta[b]pyridine-3-carboxamide], the EC50 came to 1.42 nM.

For the molecule `CC1CCc2c1cc(C(=O)NC1CCCC1)c(=O)n2C` (stereo not drawn) [Example 9, N-Cyclopentyl-1,5-dimethyl-2-oxo-6,7-dihydro-5H-cyclopenta[b]pyridine-3-carboxamide], the EC50 is 191 nM.

In the case of `C[C@H]1CCc2c1cc(C(=O)Nc1nnc(C(F)(F)F)s1)c(=O)n2C` [Example 10, (5S)-1,5-Dimethyl-2-oxo-N-[5-(trifluoromethyl)-1,3,4-thiadiazol-2-yl]-6,7-dihydro-5H-cyclopenta[b]pyridine-3-carboxamide], the EC50 amounted to 13.7 nM.

For the molecule `C[C@H]1CCc2c1cc(C(=O)Nc1nnc(C(F)(F)F)o1)c(=O)n2C` [Example 11, (5S)-1,5-Dimethyl-2-oxo-N-[5-(trifluoromethyl)-1,3,4-oxadiazol-2-yl]-6,7-dihydro-5H-cyclopenta[b]pyridine-3-carboxamide], the concentration giving a half-maximal response (EC50) was found to be 64.7 nM.

For the molecule `C[C@@H]1CCc2c1cc(C(=O)Nc1ncc(F)cn1)c(=O)n2C` [Example 12, (5R)-N-(5-Fluoropyrimidin-2-yl)-1,5-dimethyl-2-oxo-6,7-dihydro-5H-cyclopenta[b]pyridine-3-carboxamide], the EC50 came to 7.9 nM.

Regarding `C[C@H]1CCc2c1cc(C(=O)Nc1ncc(F)cn1)c(=O)n2C` [Example 13, (5S)-N-(5-Fluoropyrimidin-2-yl)-1,5-dimethyl-2-oxo-6,7-dihydro-5H-cyclopenta[b]pyridine-3-carboxamide], the EC50 was 4.67 nM.

Turning to `Cn1c2c(cc(C(=O)Nc3ncc(F)cn3)c1=O)C(C)(C)CC2` [Example 14, N-(5-Fluoropyrimidin-2-yl)-1,5,5-trimethyl-2-oxo-6,7-dihydrocyclopenta[b]pyridine-3-carboxamide], the concentration giving a half-maximal response (EC50) is 26.8 nM.

On to `CC1CCc2c1cc(C(=O)Nc1nccs1)c(=O)n2C` (stereo not drawn) [Example 15, 1,5-Dimethyl-2-oxo-N-thiazol-2-yl-6,7-dihydro-5H-cyclopenta[b]pyridine-3-carboxamide], for which the EC50 came to 1.93 nM.

`C[C@@H]1CCc2c1cc(C(=O)Nc1ccns1)c(=O)n2C` [Example 16, (5R)-N-Isothiazol-5-yl-1,5-dimethyl-2-oxo-6,7-dihydro-5H-cyclopenta[b]pyridine-3-carboxamide]: the EC50 stood at 1.35 nM.

Take `C[C@H]1CCc2c1cc(C(=O)Nc1ccns1)c(=O)n2C` [Example 17, (5S)-N-Isothiazol-5-yl-1,5-dimethyl-2-oxo-6,7-dihydro-5H-cyclopenta[b]pyridine-3-carboxamide]: the EC50 amounted to 1.34 nM.

With `C[C@@H]1CCc2c1cc(C(=O)Nc1ccsn1)c(=O)n2C` [Example 18, (5R)-N-Isothiazol-3-yl-1,5-dimethyl-2-oxo-6,7-dihydro-5H-cyclopenta[b]pyridine-3-carboxamide], the EC50 was 1.32 nM.

With `C[C@H]1CCc2c1cc(C(=O)Nc1ccsn1)c(=O)n2C` [Example 19, (5S)-N-Isothiazol-3-yl-1,5-dimethyl-2-oxo-6,7-dihydro-5H-cyclopenta[b]pyridine-3-carboxamide], the EC50 was determined as 1.04 nM.

On to `C[C@@H]1CCc2c1cc(C(=O)Nc1cnsc1)c(=O)n2C` [Example 20, (5R)-N-Isothiazol-4-yl-1,5-dimethyl-2-oxo-6,7-dihydro-5H-cyclopenta[b]pyridine-3-carboxamide], for which the EC50 amounted to 5.23 nM.

In the case of `C[C@H]1CCc2c1cc(C(=O)Nc1cnsc1)c(=O)n2C` [Example 21, (5S)-N-Isothiazol-4-yl-1,5-dimethyl-2-oxo-6,7-dihydro-5H-cyclopenta[b]pyridine-3-carboxamide], the EC50 was found to be 4.72 nM.

For `C[C@H]1CCc2c1cc(C(=O)Nc1ccccn1)c(=O)n2C` [Example 22, (5S)-1,5-Dimethyl-2-oxo-N-(2-pyridyl)-6,7-dihydro-5H-cyclopenta[b]pyridine-3-carboxamide], the EC50 turned out to be 4.1 nM.

As to `C[C@@H]1CCc2c1cc(C(=O)Nc1ccccn1)c(=O)n2C` [Example 23, (5R)-1,5-Dimethyl-2-oxo-N-(2-pyridyl)-6,7-dihydro-5H-cyclopenta[b]pyridine-3-carboxamide], the EC50 is 11.5 nM.

In the case of `C[C@H]1CCc2c1cc(C(=O)Nc1ncc(Cl)cn1)c(=O)n2C` [Example 24, (5S)-N-(5-Chloropyrimidin-2-yl)-1,5-dimethyl-2-oxo-6,7-dihydro-5H-cyclopenta[b]pyridine-3-carboxamide], the EC50 was 2.45 nM.

For `C[C@@H]1CCc2c1cc(C(=O)Nc1ncc(Cl)cn1)c(=O)n2C` [Example 25, (5R)-N-(5-Chloropyrimidin-2-yl)-1,5-dimethyl-2-oxo-6,7-dihydro-5H-cyclopenta[b]pyridine-3-carboxamide], the EC50 worked out at 1.91 nM.

As for `CC1CCc2c1c(O)c(C(=O)Nc1ccc(F)cn1)c(=O)n2C` (stereo not drawn) [Example 26, N-(5-Fluoro-2-pyridyl)-4-hydroxy-1,5-dimethyl-2-oxo-6,7-dihydro-5H-cyclopenta[b]pyridine-3-carboxamide], the concentration giving a half-maximal response (EC50) was determined as 2.87 nM.

As to `COc1cnc(NC(=O)c2c(O)c3c(n(C)c2=O)CCC3C)nc1` (stereo not drawn) [Example 27, 4-Hydroxy-N-(5-methoxypyrimidin-2-yl)-1,5-dimethyl-2-oxo-6,7-dihydro-5H-cyclopenta[b]pyridine-3-carboxamide], the 50% effective concentration (EC50) was 6.41 nM.

For the molecule `CC1CCc2c1c(O)c(C(=O)Nc1ccc(C(F)(F)F)nc1)c(=O)n2C` (stereo not drawn) [Example 28, 4-Hydroxy-1,5-dimethyl-2-oxo-N-[6-(trifluoromethyl)-3-pyridyl]-6,7-dihydro-5H-cyclopenta[b]pyridine-3-carboxamide], the EC50 worked out at 3.68 nM.

For the molecule `CC1CCc2c1c(O)c(C(=O)Nc1ncccc1F)c(=O)n2C` (stereo not drawn) [Example 29, N-(3-Fluoro-2-pyridyl)-4-hydroxy-1,5-dimethyl-2-oxo-6,7-dihydro-5H-cyclopenta[b]pyridine-3-carboxamide], the concentration giving a half-maximal response (EC50) worked out at 2.23 nM.

Consider `CC1CCc2c1c(O)c(C(=O)Nc1ncc(F)cn1)c(=O)n2C` (stereo not drawn) [Example 30, N-(5-Fluoropyrimidin-2-yl)-4-hydroxy-1,5-dimethyl-2-oxo-6,7-dihydro-5H-cyclopenta[b]pyridine-3-carboxamide], for which the EC50 amounted to 1.62 nM.

Take `CC1CCc2c1c(O)c(C(=O)Nc1nccc(C(F)(F)F)n1)c(=O)n2C` (stereo not drawn) [Example 31, 4-Hydroxy-1,5-dimethyl-2-oxo-N-[4-(trifluoromethyl)pyrimidin-2-yl]-6,7-dihydro-5H-cyclopenta[b]pyridine-3-carboxamide]: the EC50 was found to be 2.4 nM.

Turning to `CC1CCc2c1c(O)c(C(=O)Nc1ncc(C(F)(F)F)cn1)c(=O)n2C` (stereo not drawn) [Example 32, 4-Hydroxy-1,5-dimethyl-2-oxo-N-[5-(trifluoromethyl)pyrimidin-2-yl]-6,7-dihydro-5H-cyclopenta[b]pyridine-3-carboxamide], the EC50 was found to be 0.845 nM.

Regarding `CC1CCc2c1c(O)c(C(=O)Nc1ccc(C(F)(F)F)cn1)c(=O)n2C` (stereo not drawn) [Example 33, 4-Hydroxy-1,5-dimethyl-2-oxo-N-[5-(trifluoromethyl)-2-pyridyl]-6,7-dihydro-5H-cyclopenta[b]pyridine-3-carboxamide], the EC50 was found to be 2.64 nM.
